Some test systems named below: NCI/ADR-RES ovarian; DLD-1 colon; DMS 114 small cell lung; DMS 273 small cell lung; KM20L2 colon; M19-MEL melanoma; MDA-MB-435; MDA-N.
Holding throughout (assay): inhibition of tumour cell growth, NCI panel, 48 h

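Five compound concentrations were applied to cells in 96-well plates for 48 hours; endpoints were derived by simple linear interpolation of the resulting dose-response curve. GI50 = concentration required for 50% inhibition of growth. At the TGI there is no net growth.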 Where only a bound is given, the exact number is not on record here.

With `C[C@@]12CC=C3c4nc(Nc5cccc(O)c5)sc4CC[C@]3(C)[C@H]1CC[C@]1(C)C(=O)CC[C@@H]21`, in the assay with NCI/ADR-RES ovarian, the GI50 was 3.1 µM and the TGI was more than 100 µM.

With `COc1ccccc1CCc1cc(OC)c(OC)c(OC)c1`, the TGI with DLD-1 colon, with DMS 114 small cell lung, in the assay on DMS 273 small cell lung, in the assay on KM20L2 colon and with M19-MEL melanoma was more than 100 µM each time.

For `CCC[CH2][Sn]1([CH2]CCC)[O]CC(CN2CCCC2)[O]1` (stereo not given), the GI50 was 16.1 µM with DLD-1 colon; 13 µM in the assay on DMS 114 small cell lung; 16.3 µM with DMS 273 small cell lung; 20.6 µM in the assay with KM20L2 colon; 14.6 µM in the assay on M19-MEL melanoma. Besides, the TGI in the assay with DLD-1 colon was found to be 32.7 µM; with DMS 114 small cell lung it was 27 µM; with DMS 273 small cell lung, 30.8 µM; with KM20L2 colon, 52 µM; in the assay with M19-MEL melanoma, 29.4 µM.

As to `NCCCCN(CCCN)/[N+]([O-])=N\O`, the TGI with DLD-1 colon, in the assay with DMS 114 small cell lung, in the assay with DMS 273 small cell lung, in the assay on KM20L2 colon and with M19-MEL melanoma was more than 100 µM each time.

In the case of `COc1cc(-c2ccc3c(c2)NC(=O)/C3=C\c2ccc[nH]2)ccc1O`, in the assay on NCI/ADR-RES ovarian, the GI50 was 0.0177 µM and the TGI is more than 50 µM.

As for `CC1(C)C(=O)N(CCCCCCN2C(=O)C(C)(C)c3ccccc32)c2ccccc21`, the TGI with DMS 114 small cell lung is 43.4 µM; in the assay with DMS 273 small cell lung, more than 100 µM; in the assay with KM20L2 colon, more than 100 µM; with M19-MEL melanoma, 65.2 µM.

`COC(=O)/C(=N\Nc1nnc(C)n1N)C(C#N)c1ccc(Cl)cc1` (stereo not given): the TGI with DLD-1 colon, with DMS 114 small cell lung, with DMS 273 small cell lung, in the assay on KM20L2 colon and in the assay on M19-MEL melanoma was more than 100 µM throughout.

In the case of `COc1cc2c(cc1OC)C(CC(=O)NN=C(C)C)NCC2` (stereo not given), the TGI in the assay with DLD-1 colon, with DMS 114 small cell lung, with DMS 273 small cell lung, in the assay with KM20L2 colon and with M19-MEL melanoma was more than 100 µM each time.

For the compound `COC(=O)C1=C(C)N(NC(=O)OC(C)(C)C)C(=O)C1=P(c1ccccc1)(c1ccccc1)c1ccccc1`, the TGI in the assay with DLD-1 colon, in the assay on DMS 114 small cell lung, in the assay on DMS 273 small cell lung, in the assay with KM20L2 colon and with M19-MEL melanoma was more than 100 µM throughout.

With `CCOC(=O)[C@@H](N)CCC(=O)N[C@@H](CSCc1ccccc1)C(=O)N[C@@H](C(=O)OCC)c1ccccc1`, in the assay on MDA-MB-435, the GI50 is 16.5 µM and the TGI is 32.4 µM. In addition, in the assay with NCI/ADR-RES ovarian, the GI50 is more than 100 µM and the TGI is more than 100 µM.

Regarding `NP(=O)(Oc1c2occc2cc2ccc(=O)oc12)N(CCCl)CCCl` (stereo not given), the TGI with MDA-MB-435, with MDA-N and with NCI/ADR-RES ovarian was more than 100 µM throughout.

For `Cc1cc(C(=O)Nc2ncc(Cc3cccc(C(F)(F)F)c3)s2)c2ccccc2n1`, in the assay on NCI/ADR-RES ovarian, the GI50 was 2.06 µM and the TGI was more than 100 µM.

With `N#C/C(=C1C=C(Br)/C(=N\O)C=C\1Cl)c1cccc2ccccc12`, the results for the TGI with MDA-MB-435, in the assay with MDA-N and with NCI/ADR-RES ovarian were 10.4 µM, 3.28 µM and more than 100 µM, respectively.

With `COc1ccc(/C=C/c2ccnc3ccccc23)c(OC)c1`, the TGI with MDA-MB-435 is 5.09 µM; with MDA-N, more than 10 µM; in the assay on NCI/ADR-RES ovarian, more than 10 µM.

On to `CC(=O)CSCc1ccccn1`, for which the TGI in the assay with MDA-MB-435, in the assay with MDA-N and in the assay with NCI/ADR-RES ovarian was more than 100 µM throughout.

Consider `COC(C(O)CO)C(O)C(O)C(=O)NNc1ccccc1` (stereo not given), for which the TGI with MDA-MB-435, with MDA-N and in the assay with NCI/ADR-RES ovarian was more than 100 µM throughout.

In the case of `Clc1nc(Cl)c(Cl)c(-c2ccccc2)n1`, the TGI is 28.7 µM in the assay with MDA-MB-435 and more than 100 µM with NCI/ADR-RES ovarian.

Regarding `NCC1Nc2ccccc2[C@@H](O)C1O` (stereo not given in full), the TGI in the assay with MDA-MB-435, with MDA-N and with NCI/ADR-RES ovarian was more than 100 µM in each case.

In the case of `COc1ccccc1/C=C1\SC(=S)N(/C=C2\C(=O)Oc3ccccc3C2=O)C1=O`, the TGI in the assay on MDA-MB-435 is 86.5 µM; with MDA-N, more than 100 µM; in the assay on NCI/ADR-RES ovarian, more than 100 µM.

`COc1cc(/C=C/c2cc(/C=C/c3ccc(O)c(OC)c3)n(C(=O)Nc3ccc(F)c(Cl)c3)n2)ccc1O`: in the assay with MDA-MB-435, the GI50 is 0.0223 µM and the TGI turned out to be 0.102 µM. Also, in the assay on NCI/ADR-RES ovarian, the GI50 is 0.126 µM and the TGI came to 3.09 µM.

In the case of `COc1cc2nc3cc([N+](=O)[O-])ccc3c(NCCCNCCO)c2cc1OC`, the GI50 in the assay with MDA-MB-435 was 0.179 µM; in the assay with NCI/ADR-RES ovarian it was 31.4 µM. In addition, the figures for the TGI in the assay on MDA-MB-435 and in the assay with NCI/ADR-RES ovarian were 0.336 µM and more than 100 µM, respectively.

Turning to `CC(C)(C)c1cc(Br)c(O)c(CN(Cc2cc(C(C)(C)C)cc(Br)c2O)C2CCCCC2)c1`, the TGI came to 27.4 µM in the assay on MDA-MB-435, 27.6 µM in the assay on MDA-N and 24.3 µM with NCI/ADR-RES ovarian.

On to `COc1ccc(Nc2c3ccccc3nc3occc23)cc1`, for which, in the assay with MDA-MB-435, the GI50 is 0.171 µM. For the same compound, in the assay on NCI/ADR-RES ovarian, the GI50 was 0.921 µM and the TGI was more than 36.8 µM.

`CN1c2ccc(Cl)cc2C(=O)NC1c1ccc([N+](=O)[O-])s1` (stereo not given): the TGI was found to be 31.4 µM in the assay with MDA-MB-435, 31.7 µM with MDA-N and 35.3 µM in the assay with NCI/ADR-RES ovarian.

As to `NS(=O)(=O)c1ccc(NC2(C(=O)O)CCCC2)cc1`, the TGI in the assay with MDA-MB-435, in the assay on MDA-N and with NCI/ADR-RES ovarian was more than 100 µM each time.

Regarding `O=C1OC(C(O)CO)C(=O)C1=O` (stereo not given), in the assay on MDA-MB-435, the GI50 was 2120 µM and the TGI was 4290 µM. In the assay on NCI/ADR-RES ovarian, the GI50 was 7060 µM and the TGI is more than 10000 µM.

Regarding `O=C(N/N=C/c1ccc(Cl)cc1)c1ccc(C(F)(F)F)nc1Nc1cccc(C(F)(F)F)c1`, the GI50 in the assay with MDA-MB-435 is 3.17 µM; with NCI/ADR-RES ovarian, 1.96 µM. Further, the TGI in the assay with MDA-MB-435 turned out to be 20.1 µM; in the assay with NCI/ADR-RES ovarian it was 6.99 µM.

Source of the values: PubChem BioAssay (NCI).
